From patent US20250136570A1 (Tango Therapeutics, Inc., priority 2021, published 2025)

Tests used:
[1] = target: HDAC3/NCor2 (Homo sapiens (Human), UniProt O15379); assay: HDAC3 inhibition, Fluor de Lys fluorescent enzyme assay; type: biochemical; conditions: 3 hours pre-incubation at room temp; 1.2 nM enzyme; 16 μM Fluor de Lys substrate; duplicate
Text: (§1) Recombinant HDAC1 (cat #: 50051) and HDAC3/NCor2 (cat #: 50003) enzymes were purchased from BPS Bioscience (San Diego, CA, US). Assay reagents for the detection of HDAC enzyme activity (Fluor de Lys®—Green substrate and Developer kits) were purchased from Enzo Life Science (Farmingdale, NY, US). Plates used to conduct the enzyme reaction were Proxiplate-384 (cat #: 6008280) Plus from PerkinElmer (Waltham, MA, US). TSA, an HDAC inhibitor, was purchased from Enzo Life Science (cat #BML-GR309-9090) The remainder of the reagents used to prepare the assay buffer were purchased from Sigma-Aldrich (St Louis, MO, US). Unless stated otherwise, HDAC1 and 3 assays were conducted in 50 mM Tris buffer, pH 8, 137 mM NaCl, 2.7 mM KCl, 0.01% BSA.
(§2) IC50 determination for HDAC1 and HDAC3—Prior to adding reagents, 50 nL/well of compound were added to Proxiplates using an Echo dispenser instrument (Beckman Coulter, CA, US). After addition of compound, 2.5 μL/well of 2× enzyme solution was added and the enzyme was pre-incubated with compound for 3 hours at room temp. (˜22° C.). After the pre-incubation period, the enzyme reaction was initiated by adding 2.5 μL/well of 2× Fluor de Lys® substrate solution. The assay reaction was stopped after one hour by adding 5 μl/well of a 0.66× Developer solution containing TSA (3.2 μM). The final product of the enzyme reaction was read using a Spectramax plate reader instrument (Molecular Devices, CA, US) using a fluorescent readout (Ex 360 nm/Em 460 nm). The final enzyme concentrations in the assay buffer for HDAC1 and 3 were 6 and 1.2 nM, respectively. The final Fluor de Lys® substrate concentration in the assay buffer was 16 μM for all HDAC enzymes. IC50 values were determined using the following equation: […]
(§3) Where Efree and Eo are the free and total amount of HDAC enzyme in the reaction mixture, n is the hill coefficient, I is the free inhibitor concentration, and IC50 is the measure of the potency equivalent to the inhibitor concentration that leads to a 50% occupancy of the total enzyme. Each data was generated in duplicate.

[2] = target: Recombinant HDAC1 (Homo sapiens (Human), UniProt Q13547); assay: HDAC1 inhibition, Fluor de Lys fluorescent enzyme assay; type: biochemical; conditions: 3 hours pre-incubation at room temp; 6 nM enzyme; 16 μM Fluor de Lys substrate; duplicate
Text: as §1, §2, §3

Sequence of Recombinant HDAC1 (Q13547 whole entry): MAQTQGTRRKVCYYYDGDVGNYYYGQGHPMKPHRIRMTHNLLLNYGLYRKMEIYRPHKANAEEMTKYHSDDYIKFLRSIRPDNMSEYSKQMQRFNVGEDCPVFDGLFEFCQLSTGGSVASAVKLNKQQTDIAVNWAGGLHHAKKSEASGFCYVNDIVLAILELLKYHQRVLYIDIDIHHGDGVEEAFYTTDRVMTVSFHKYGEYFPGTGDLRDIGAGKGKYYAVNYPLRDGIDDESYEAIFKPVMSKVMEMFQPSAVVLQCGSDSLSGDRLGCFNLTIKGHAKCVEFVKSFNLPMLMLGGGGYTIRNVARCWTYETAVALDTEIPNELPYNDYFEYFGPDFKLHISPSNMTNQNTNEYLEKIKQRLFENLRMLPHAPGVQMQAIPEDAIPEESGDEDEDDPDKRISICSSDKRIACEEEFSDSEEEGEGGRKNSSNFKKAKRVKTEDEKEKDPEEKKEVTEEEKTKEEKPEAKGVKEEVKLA
Sequence of HDAC3/NCor2 (O15379 whole entry): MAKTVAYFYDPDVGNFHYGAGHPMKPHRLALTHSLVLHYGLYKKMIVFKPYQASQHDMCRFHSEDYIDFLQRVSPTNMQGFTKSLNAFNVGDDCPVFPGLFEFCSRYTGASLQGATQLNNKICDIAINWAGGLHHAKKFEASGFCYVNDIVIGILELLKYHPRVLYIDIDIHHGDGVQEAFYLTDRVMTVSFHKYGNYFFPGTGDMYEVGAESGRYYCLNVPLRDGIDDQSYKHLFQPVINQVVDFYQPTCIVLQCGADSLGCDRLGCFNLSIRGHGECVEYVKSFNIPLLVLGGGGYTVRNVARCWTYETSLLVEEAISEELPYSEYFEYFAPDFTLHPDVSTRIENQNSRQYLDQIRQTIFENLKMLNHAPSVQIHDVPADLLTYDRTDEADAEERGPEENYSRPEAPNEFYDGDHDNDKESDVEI
Sequence of HDAC3/NCor2 (Q9Y618 395-489 partner): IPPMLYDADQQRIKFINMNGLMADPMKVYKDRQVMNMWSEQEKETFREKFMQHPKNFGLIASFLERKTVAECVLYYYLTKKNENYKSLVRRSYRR

Row | Structure (SMILES) | IC50 [1] | IC50 [2]
1 | CS(=N)(=O)c1ccc(C(=O)Nc2cc(-c3ccc(F)cc3F)ccc2N)cc1 (stereo not shown) [Compound 117, N-[2-amino-5-(2,4-difluorophenyl)phenyl]-4-(methylsulfonimidoyl)benzamide] | > 2000 nM | < 100 nM
2 | CS(=N)(=O)c1ccc(C(=O)Nc2cc(-c3ccccn3)ccc2N)cc1 (stereo not shown) [Compound 119, N-[2-amino-5-(2-pyridyl)phenyl]-4-(methylsulfonimidoyl)benzamide] | > 2000 nM | 100 to 500 nM
3 | N=S(=O)(c1ccc(C(=O)Nc2cc(-c3ccccn3)ccc2N)cc1)C1CC1 (stereo not shown) [Compound 120, N-[2-amino-5-(2-pyridyl)phenyl]-4-(cyclopropylsulfonimidoyl)benzamide] | > 2000 nM | 100 to 500 nM
4 | Cc1csc(-c2ccc(N)c(NC(=O)c3ccc(S(C)(=N)=O)cc3)c2)c1 (stereo not shown) [Compound 135, N-[2-amino-5-(4-methyl-2-thienyl)phenyl]-4-(methylsulfonimidoyl)benzamide] | > 2000 nM | < 100 nM
5 | Cc1ccc(-c2ccc(N)c(NC(=O)c3ccc(S(C)(=N)=O)cc3)c2)cc1 (stereo not shown) [Compound 136, N-[2-amino-5-(p-tolyl)phenyl]-4-(methylsulfonimidoyl)benzamide] | > 2000 nM | < 100 nM
6 | Cc1ccc(-c2ccc(N)c(NC(=O)c3ccc(S(C)(=N)=O)cc3)c2)s1 (stereo not shown) [Compound 139, N-[2-amino-5-(5-methyl-2-thienyl)phenyl]-4-(methylsulfonimidoyl)benzamide] | > 2000 nM | < 100 nM
7 | CS(=N)(=O)c1ccc(C(=O)Nc2cc(-c3ccc(C(F)(F)F)cc3)ccc2N)cc1 (stereo not shown) [Compound 142, N-[2-amino-5-[4-(trifluoromethyl)phenyl]phenyl]-4-(methylsulfonimidoyl)benzamide] | > 2000 nM | 500 to 2000 nM
8 | C[S@@](=N)(=O)c1ccc(C(=O)Nc2cc(-c3ccc(F)s3)ccc2N)cc1 [Compound 144, (R)—N-[2-amino-5-(5-fluoro-2-thienyl)phenyl]-4-(methylsulfonimidoyl)benzamide] | 500 to 2000 nM | < 100 nM
9 | CS(=N)(=O)c1ccc(C(=O)Nc2cc(-c3ccc(F)c(F)c3)ccc2N)cc1 (stereo not shown) [Compound 147, N-[2-amino-5-(3,4-difluorophenyl)phenyl]-4-(methylsulfonimidoyl)benzamide] | > 2000 nM | 100 to 500 nM
10 | CS(=N)(=O)c1ccc(C(=O)Nc2cc(-c3cncs3)ccc2N)cc1 (stereo not shown) [Compound 148, N-(2-amino-5-thiazol-5-yl-phenyl)-4-(methylsulfonimidoyl)benzamide] | 500 to 2000 nM | < 100 nM
11 | C[S@](=N)(=O)c1ccc(C(=O)Nc2cc(-c3ccc(F)s3)ccc2N)cc1 [Compound 149, (S)—N-[2-amino-5-(5-fluoro-2-thienyl)phenyl]-4-(methylsulfonimidoyl)benzamide] | 500 to 2000 nM | < 100 nM
12 | N=S(=O)(c1ccc(C(=O)Nc2cc(-c3cccs3)ccc2N)cc1)c1ccccn1 (stereo not shown) [Compound 150, N-[2-amino-5-(2-thienyl)phenyl]-4-(2-pyridylsulfonimidoyl)benzamide] | 500 to 2000 nM | < 100 nM
13 | CS(=N)(=O)c1ccc(C(=O)Nc2cc(-c3cncnc3)ccc2N)cc1 (stereo not shown) [Compound 151, N-(2-amino-5-pyrimidin-5-yl-phenyl)-4-(methylsulfonimidoyl)benzamide] | > 2000 nM | > 2000 nM
14 | CS(=O)(=NC#N)c1ccc(C(=O)Nc2cc(-c3cccs3)ccc2N)cc1 (stereo not shown) [Compound 153, N-[2-amino-5-(2-thienyl)phenyl]-4-(N-cyano-S-methyl-sulfonimidoyl)benzamide] | 500 to 2000 nM | < 100 nM

Next, values leading:

Row | IC50 [1] | IC50 [2] | Structure (SMILES)
15 | 500 to 2000 nM | < 100 nM | N=S(=O)(c1ccc(C(=O)Nc2cc(-c3cccnc3)ccc2N)cc1)C1CC1 (stereo not shown) [Compound 116, N-[2-amino-5-(3-pyridyl)phenyl]-4-(cyclopropylsulfonimidoyl)benzamide]
16 | 500 to 2000 nM | < 100 nM | N=S(=O)(c1ccc(C(=O)Nc2cc(-c3ccc(F)cc3F)ccc2N)cc1)C1CC1 (stereo not shown) [Compound 118, N-[2-amino-5-(2,4-difluorophenyl)phenyl]-4-(cyclopropylsulfonimidoyl)benzamide]
17 | 500 to 2000 nM | < 100 nM | COCCS(=N)(=O)c1ccc(C(=O)Nc2cc(-c3cccs3)ccc2N)nc1 (stereo not shown) [Compound 121, N-[2-amino-5-(2-thienyl)phenyl]-5-(2-methoxyethylsulfonimidoyl)pyridine-2-carboxamide]
18 | 500 to 2000 nM | < 100 nM | N=S(=O)(c1ccc(C(=O)Nc2cc(-c3cccs3)ccc2N)cn1)C1CC1 (stereo not shown) [Compound 122, N-[2-amino-5-(2-thienyl)phenyl]-6-(cyclopropylsulfonimidoyl)pyridine-3-carboxamide]
19 | 500 to 2000 nM | < 100 nM | CS(=N)(=O)c1ccc(C(=O)Nc2cc(-c3cccs3)ccc2O)cc1 (stereo not shown) [Compound 123, N-[2-hydroxy-5-(2-thienyl)phenyl]-4-(methylsulfonimidoyl)benzamide]
20 | 100 to 500 nM | < 100 nM | CS(=N)(=O)c1ccc(C(=O)Nc2cc(-c3cccs3)ccc2N)nn1 (stereo not shown) [Compound 124, N-[2-amino-5-(2-thienyl)phenyl]-6-(methylsulfonimidoyl)pyridazine-3-carboxamide]
21 | 500 to 2000 nM | < 100 nM | CC(C)(C)C(=O)N=S(C)(=O)c1ccc(C(=O)Nc2cc(-c3cccs3)ccc2N)cc1 (stereo not shown) [Compound 125, N-[2-amino-5-(2-thienyl)phenyl]-4-[N-(2,2-dimethylpropanoyl)-S-methyl-sulfonimidoyl]benzamide]
22 | 500 to 2000 nM | < 100 nM | CS(=N)(=O)Cc1ccc(C(=O)Nc2cc(-c3cccs3)ccc2N)cc1 (stereo not shown) [Compound 128, N-[2-amino-5-(2-thienyl)phenyl]-4-[(methylsulfonimidoyl)methyl]benzamide]
23 | 500 to 2000 nM | < 100 nM | CS(=N)(=O)c1ccc(C(=O)Nc2cc(-c3ccc(F)cc3)ccc2N)cn1 (stereo not shown) [Compound 129, N-[2-amino-5-(4-fluorophenyl)phenyl]-6-(methylsulfonimidoyl)pyridine-3-carboxamide]
24 | 500 to 2000 nM | < 100 nM | CS(=N)(=O)c1ccc(C(=O)Nc2cc(-c3ccc(F)cc3)ccc2O)cc1 (stereo not shown) [Compound 130, N-[5-(4-fluorophenyl)-2-hydroxy-phenyl]-4-(methylsulfonimidoyl)benzamide]
25 | 500 to 2000 nM | < 100 nM | C[S@@](=N)(=O)c1ccc(C(=O)Nc2cc(-c3ccc(F)cc3)ccc2N)cc1 [Compound 132, (R)—N-[2-amino-5-(4-fluorophenyl)phenyl]-4-(methylsulfonimidoyl)benzamide]
26 | 500 to 2000 nM | < 100 nM | C[S@](=N)(=O)c1ccc(C(=O)Nc2cc(-c3ccc(F)cc3)ccc2N)cc1 [Compound 134, (S)—N-[2-amino-5-(4-fluorophenyl)phenyl]-4-(methylsulfonimidoyl)benzamide]
27 | 500 to 2000 nM | < 100 nM | CS(=N)(=O)c1ccc(C(=O)Nc2cc(-c3ccc(Cl)s3)ccc2N)cc1 (stereo not shown) [Compound 137, N-[2-amino-5-(5-chloro-2-thienyl)phenyl]-4-(methylsulfonimidoyl)benzamide]
28 | 500 to 2000 nM | < 100 nM | CS(=N)(=O)c1ccc2sc(C(=O)Nc3cc(-c4cccs4)ccc3N)cc2c1 (stereo not shown) [Compound 138, N-[2-amino-5-(2-thienyl)phenyl]-5-(methylsulfonimidoyl)benzothiophene-2-carboxamide]
29 | 500 to 2000 nM | < 100 nM | CS(=N)(=O)C1(c2ccc(C(=O)Nc3cc(-c4cccs4)ccc3N)cc2)CC1 (stereo not shown) [Compound 140, N-[2-amino-5-(2-thienyl)phenyl]-4-[1-(methylsulfonimidoyl)cyclopropyl]benzamide]
30 | 500 to 2000 nM | < 100 nM | CCN=S(C)(=O)c1ccc(C(=O)Nc2cc(-c3cccs3)ccc2N)cc1 (stereo not shown) [Compound 141, N-[2-amino-5-(2-thienyl)phenyl]-4-(N-ethyl-S-methyl-sulfonimidoyl)benzamide]
31 | 500 to 2000 nM | < 100 nM | CS(=N)(=O)c1ccc2oc(C(=O)Nc3cc(-c4cccs4)ccc3N)cc2c1 (stereo not shown) [Compound 143, N-[2-amino-5-(2-thienyl)phenyl]-5-(methylsulfonimidoyl)benzofuran-2-carboxamide]
32 | 100 to 500 nM | < 100 nM | CS(=N)(=O)c1ccc(C(=O)Nc2cc(-c3ccc(F)s3)ccc2N)nn1 (stereo not shown) [Compound 152, N-[2-amino-5-(5-fluoro-2-thienyl)phenyl]-6-(methylsulfonimidoyl)pyridazine-3-carboxamide]
